How the values were obtained:
[1] = test system: TNFα, IL-2, IFN-γ, IL-4, IL-10; test: Serum cytokines; type: in vivo, mouse; details: APP/PS1 mice, vs model group
Procedure: The backgrounds of all mice (APP/PS1 dual transgenic mice and wild-type mice with littermates) were C57/B6. Transgenic mice were randomly divided into three groups (n=20 for each group), and wild-type mice were used as controls (n=20). The control group and one group of transgenic mice (model group) were given sterilized ultrapure water, and the other two groups of transgenic mice received low- and high-dose Isoorientin (20 and 50 mg/kg, respectively) via intragastric administration for 60 days. Throughout the study-period, animals were housed in a controlled environment (temperature, 22° C.; humidity, 50-60%, 12-hour light/12-hour dark schedules), with free access to rodent chow and water. After a Morris water maze test, mice were perfused with cold phosphate-buffered saline (PBS), brain tissues were dissected and kept frozen at −80° C. until further analysis. […] T-cell-specific cytokines (Interferon-γ (IFN-γ), interleukin (IL)-2, IL-4, and IL-10) in mouse serum were also measured. Mouse Th17 Magnetic Bead Panel 96-Well Plate Assay was purchased from Millipore. The assay was performed in a 96-well plate and all reagents were prepared according to the Millipore instructions. Briefly, 200 μL of Wash Buffer was added into each well to pre-wet plate, Wash Buffer was decanted thoroughly and the plate was mixed on a plate shaker for 10 minutes at room temperature (25-27° C.). In accordance with the instructions of the kit, the appropriate reagents were added to the wells and the plate was sealed and incubated overnight at 4° C. in the dark. Plates were put on the magnetic support and each well was washed twice with 200 μl of wash buffer via a plate shaker at 450 rpm for 2 minutes at room temperature. After adding 5 μl of detection antibody to each well, the plate was sealed and incubated with agitation on a plate shaker for 1 hour at room temperature. […] Binding was assessed using a LUMINEX-200 instrument and xPONENT software. Serum samples were analyzed for IL4 and TNFα using a Mouse IL4 ELISA Kit and a Mouse TNFα ELISA Kit, respectively, according to the manufacturer's instructions. […]

in vitro = details: PAMPA, 5 h, 20 μM, pH 7.4
Procedure: Samples were run in quadruplicate.
Oral administration is noninvasive and is preferred for chronical diseases such as Alzheimer's disease and other CNS disorders. […] In the PAMPA model, the amount of target compounds diffused from a donor compartment to an acceptor compartment through a tri-layer phospholipid pre-coated membrane are measured to assess oral-absorption potential of drug candidates. In the present study, 1, 4, 9, 17, 21 and 30 were evaluated with the PAMPA assay.

O=c1cc(-c2ccc(O)c(O)c2)oc2cc(O)c([C@@H]3O[C@H](CO)[C@@H](O)[C@H](O)[C@H]3O)c(O)c12 [Compound 1, isoorientin]
IFNγ in serum [1]: no statistical difference in the decrease
anti-inflammatory factors (IL-4, IL-10) in serum [1]: significantly elevated
pro-inflammatory factors (TNFα, IFNγ, IL-2) in serum [1]: slightly lower than those in the model group
Pe (in vitro): 0.51 ± 0.01 ×10^−6 cm/s
R (percent recovery) (in vitro): 48%

Source: patent US11254700B2, “GSK-3β inhibitors and use thereof in methods of treatment” (UNIVERSITY OF HAWAII, priority 2017, dated 2022)
